{
  "source": "paper PMC9489722",
  "about": "“Identification and development of a subtype-selective allosteric AKT inhibitor suitable for clinical development” (Scientific Reports, 2022)",
  "key": {"∆AKT2": {"system": "∆AKT2", "assay": "PH domain null AKT2 biochemical kinase assay (FP iMAP)", "procedure": "Biochemical analysis was performed using kinases obtained from Millipore (AKT1, ∆AKT1, ∆AKT2, ∆AKT3) and Signal Chem (AKT2 and AKT3). The specific activity of AKT 1,2 and 3 was determined to be 114 nmol/min/mg, 44 nmol/min/mg and 200 nmol/min/mg respectively as per activity assay protocol. ALM301 was profiled using the Fluorescent Polarisation (FP) iMAP Screening Express kit (Molecular Devices) using the FAM-Crosstide substrate [5FAM-[…]-OH] (Molecular Devices) against the three isoforms of AKT and their PH domain null mutants. Compounds were dissolved in DMSO prior to screening at 14 point titration series in the range (50 µM–50 pM). Fluorescence polarisation was measured using a Biotek Synergy 4 Hybrid microplate reader. Percentage inhibition of kinase activity was calculated and IC50 values derived using non-linear regression on GraphPad Prism. Competition of ALM301 with ATP was determined using AKT1 under increasing ATP concentrations up to 1000 µM."}, "p38α": {"target": "p38α (Homo sapiens, UniProt Q16539)", "sequence (Q16539 whole entry)": "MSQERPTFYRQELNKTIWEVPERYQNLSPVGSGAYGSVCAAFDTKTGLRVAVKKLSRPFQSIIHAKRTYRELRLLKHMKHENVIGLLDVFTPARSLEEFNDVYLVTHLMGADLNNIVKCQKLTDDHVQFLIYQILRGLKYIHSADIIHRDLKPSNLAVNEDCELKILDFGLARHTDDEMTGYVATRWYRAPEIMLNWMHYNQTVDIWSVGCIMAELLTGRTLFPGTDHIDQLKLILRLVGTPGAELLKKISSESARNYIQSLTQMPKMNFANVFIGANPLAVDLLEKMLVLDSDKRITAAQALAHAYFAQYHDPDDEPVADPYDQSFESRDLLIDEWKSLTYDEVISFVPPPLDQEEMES", "assay": "SelectScreen kinase selectivity profiling, p38α", "type": "biochemical", "procedure": "Off-target kinase activity was performed using the SelectScreen kinase profiling service against either mini 50 kinase or full 450 kinase panels using the Z’lyte and Adapta kinase activity platforms (performed by Thermofisher)."}, "MCF-7 xenografts": {"system": "MCF-7 xenografts", "assay": "Efficacy study in MCF-7 breast cancer xenograft model", "type": "in vivo", "settings": "MCF-7 xenograft; for tumour regression: p.o.", "procedure": "For efficacy in MCF-7 xenografts, 150 SCID female mice aged 6–8 weeks and weighing approximately 18–22 g were implanted with 1 × 10^7 MCF-7 tumour cells (ATCC) subcutaneously in the right flank. […] Once mean tumour size reached approximately 150 mm^3, mice were randomised to either control or treatment groups (n = 10/group) using a randomised block approach. Groups sizes were devised based on past experience of the provider. […] Tumour size was measured twice weekly in two dimensions using a caliper, and the volume expressed in mm^3 using the formula: V = 0.5 (a x b^2), where a and b are the long and short diameters of the tumour, respectively."}, "MCF-7 cells [1]": {"system": "MCF-7 cells", "assay": "In vitro proliferation assay (CellTiter-Glo), MCF-7", "type": "cell-based", "settings": "Homo sapiens, MCF7; MCF-7 cells (PI3KCA mutation), 72 h; read-out: anti-proliferative IC50, MCF-7", "procedure": "MCF-7, T47D, NCI-H460, HCT116, LNCaP, A431, PC3, PANC-1, A549, HT29M, SKOV-3, Du145, HMEC-1, Hs888Lu, Hela, MDA-MB-231 and SW480 cells were obtained from American Type Culture Collection (ATCC). A2780, PNT2, U251MG, HFFF2 and Fr2 cells were obtained from Public Health England European Collection of Authenticated Cell Cultures (Phe ECACC). InMyoFib and NHLF cells were acquired from Lonza. Cells were then incubated with increasing concentration of inhibitor (1 nM to 100 µM) for 72 h at 37 °C. Cell viability was determined using the CellTiter-Glo Luminescent Cell Viability Assay (Promega). IC50 values were derived as previously stated."}, "[2]": {"assay": "In vitro microsomal stability, rat", "type": "in vitro ADME", "settings": "pH 7.4; rat liver microsomes; read-out: rat LM CLint", "procedure": "(§1) Compounds (final concentration = 1 µM; final DMSO concentration = 0.1%) were incubated in 0.1 M phosphate buffer at pH 7.4 with liver microsomes (human, mouse, rat or dog; 0.5 mg of protein/mL) at 37 °C. Reactions were started by addition of NADPH in 0.1 M phosphate buffer pH 7.4 (final concentration 1 mM). Reactions were quenched by addition of ice-cold methanol and frozen. The supernatants were analysed by LC/MS/MS on a Waters Acquity I-Class coupled to a Waters Xevo TQD mass spectrometer. A Waters BEH C18 2.1 × 50 mm 1.7 µm column was used and mobile phases consisted of water and methanol containing 0.1% formic acid as modifier. Analysis was by multiple reaction monitoring and conditions were optimised for each test compound."}, "CYP3A4": {"target": "CYP3A4 (Homo sapiens, UniProt P08684)", "sequence (P08684 whole entry)": "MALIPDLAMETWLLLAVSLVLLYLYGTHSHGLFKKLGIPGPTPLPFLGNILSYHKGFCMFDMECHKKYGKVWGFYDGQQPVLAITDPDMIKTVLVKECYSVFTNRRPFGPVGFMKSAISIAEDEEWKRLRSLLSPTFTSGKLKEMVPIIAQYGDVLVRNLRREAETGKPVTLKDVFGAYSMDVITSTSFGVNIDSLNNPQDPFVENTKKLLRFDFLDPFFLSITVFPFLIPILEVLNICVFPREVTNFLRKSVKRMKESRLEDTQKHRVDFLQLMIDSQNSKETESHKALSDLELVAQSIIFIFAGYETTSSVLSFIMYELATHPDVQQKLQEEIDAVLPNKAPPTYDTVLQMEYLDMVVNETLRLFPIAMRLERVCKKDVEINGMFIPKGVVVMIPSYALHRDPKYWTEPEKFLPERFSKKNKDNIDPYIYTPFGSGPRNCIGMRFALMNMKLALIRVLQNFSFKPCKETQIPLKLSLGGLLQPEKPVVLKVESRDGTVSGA", "assay": "CYP3A4 inhibition", "type": "in vitro ADME", "settings": "read-out: CYP IC50, 3A4"}, "AKT2": {"target": "T1, AKT2 (Homo sapiens, UniProt P31751)", "T1 construct": "purchased Signal Chem", "T1 sequence (P31751 whole entry, the tested form may be a part, canonical isoform)": "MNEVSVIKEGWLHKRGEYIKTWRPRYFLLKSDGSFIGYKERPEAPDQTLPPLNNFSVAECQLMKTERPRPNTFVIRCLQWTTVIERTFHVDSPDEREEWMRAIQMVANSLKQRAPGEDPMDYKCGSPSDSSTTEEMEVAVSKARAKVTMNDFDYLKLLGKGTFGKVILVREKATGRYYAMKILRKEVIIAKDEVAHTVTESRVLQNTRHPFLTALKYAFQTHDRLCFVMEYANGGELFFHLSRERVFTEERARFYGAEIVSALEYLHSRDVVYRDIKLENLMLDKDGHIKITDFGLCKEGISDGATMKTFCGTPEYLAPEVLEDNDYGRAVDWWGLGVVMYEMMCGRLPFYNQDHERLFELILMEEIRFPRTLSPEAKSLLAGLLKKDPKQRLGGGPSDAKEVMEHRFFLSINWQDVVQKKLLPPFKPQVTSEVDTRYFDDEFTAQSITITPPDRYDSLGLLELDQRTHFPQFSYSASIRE", "assay": "AKT2 biochemical kinase assay (FP iMAP)", "procedure": "Biochemical analysis was performed using kinases obtained from Millipore (AKT1, ∆AKT1, ∆AKT2, ∆AKT3) and Signal Chem (AKT2 and AKT3). […] (Molecular Devices) against the three isoforms of AKT and their PH domain null mutants. Compounds were dissolved in DMSO prior to screening at 14 point titration series in the range (50 µM–50 pM). Fluorescence polarisation was measured using a Biotek Synergy 4 Hybrid microplate reader. Percentage inhibition of kinase activity was calculated and IC50 values derived using non-linear regression on GraphPad Prism. Competition of ALM301 with ATP was determined using AKT1 under increasing ATP concentrations up to 1000 µM."}, "[3]": {"assay": "In vitro microsomal stability, mouse", "type": "in vitro ADME", "settings": "pH 7.4; mouse liver microsomes; read-out: mouse LM CLint", "procedure": "as §1"}, "MCF-7 cells [4]": {"system": "MCF-7 cells", "assay": "Cell cycle flow cytometry", "type": "cell-based", "procedure": "MCF-7 breast cancer cells were treated with increasing concentrations of ALM301 (0.1–100 µM) for 72 h. Post treatment, media containing detached cells was collected for each sample and the remaining adherent cells detached using 0.1% EDTA in PBS. Resulting cell suspensions were incorporated with associated media, centrifuged to form a pellet, washed with 1% FCS in PBS and fixed using ice-cold ethanol. Samples were stored at 4 °C for 24 h before staining with propidium iodide (10 µg/mL) (Sigma) containing 2.5 mg/mL RNase A (Qiagen) for 30 min at 37 °C and stored overnight at 4 °C before analysis. A minimum of 10,000 cells per sample were analysed for DNA content using a FACSCalibur flow cytometer and CellQuest Pro software (Becton Dickinson)."}, "CYP 2C19": {"target": "CYP 2C19 (Homo sapiens, UniProt P33261)", "sequence (P33261 whole entry)": "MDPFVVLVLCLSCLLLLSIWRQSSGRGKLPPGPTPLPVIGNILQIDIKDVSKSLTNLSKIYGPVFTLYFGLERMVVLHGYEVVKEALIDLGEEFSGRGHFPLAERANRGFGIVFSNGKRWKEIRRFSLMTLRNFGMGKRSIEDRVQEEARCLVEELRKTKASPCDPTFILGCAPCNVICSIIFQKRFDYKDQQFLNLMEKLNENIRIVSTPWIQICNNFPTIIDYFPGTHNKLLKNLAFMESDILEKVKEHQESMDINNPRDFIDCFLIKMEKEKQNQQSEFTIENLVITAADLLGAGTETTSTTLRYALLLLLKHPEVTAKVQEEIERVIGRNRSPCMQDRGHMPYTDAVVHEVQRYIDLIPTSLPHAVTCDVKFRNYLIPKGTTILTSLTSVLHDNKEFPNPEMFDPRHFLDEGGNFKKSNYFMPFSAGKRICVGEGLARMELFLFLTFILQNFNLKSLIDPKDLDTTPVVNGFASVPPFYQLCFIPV", "assay": "CYP2C19 inhibition", "type": "in vitro ADME"}},
  "note": "Like-named read-outs stand apart in the source and are kept apart here.",
  "data": [
    {"smiles": "CCN1C(=O)COc2nc(-c3ccc([C@]4(N)C[C@@H](O)C4)cc3)c(-c3ccccc3)cc21", "note": "[ALM301, 6-(4-((1S,3S)-1-amino-3-hydroxycyclobutyl)phenyl)-1-ethyl-7-phenyl-1H-pyrido[2,3-b][1,4]oxazin-2(3H)-one]", "values": [
      {"measurement": "inhibition of truncated AKT2 lacking PH domain", "setting": "∆AKT2", "result": "not inhibited"},
      {"measurement": "IC50", "setting": "p38α; 10-point titration curve", "result": "> 10000", "unit": "nM"},
      {"measurement": "inhibition at 10 µM", "setting": "p38α; read-out: % inhibition @ 10 µM, p38α, 10 µM fixed concentration", "result": 84, "unit": "%"},
      {"measurement": "tumour regression", "setting": "MCF-7 xenografts; ALM301 3 mg/kg q.d. in combination with tamoxifen 5 mg/kg q.d.", "result": 57, "unit": "%"},
      {"measurement": "tumour regression", "setting": "MCF-7 xenografts; ALM301 10 mg/kg q.d. in combination with tamoxifen 5 mg/kg q.d.", "result": 50, "unit": "%"},
      {"measurement": "tolerability / animal body weight", "setting": "MCF-7 xenografts; monotherapy and in combination with tamoxifen, any dose levels", "result": "no significant effects on animal body weight"},
      {"measurement": "tumour growth inhibition, single agent", "setting": "MCF-7 xenografts; p.o. 3 or 10 mg/kg once-a-day", "result": "minimal tumour growth inhibition"},
      {"measurement": "IC50", "setting": "MCF-7 cells [1]", "result": 2250, "unit": "nM"},
      {"measurement": "microsomal CLint at 1 µM", "setting": "[2]", "result": 3, "unit": "µL/min/mg"},
      {"measurement": "IC50", "setting": "CYP3A4", "result": "> 25000", "unit": "nM"},
      {"measurement": "IC50", "setting": "AKT2; full length AKT2, read-out: IC50 full length AKT2", "result": 95, "unit": "nM"},
      {"measurement": "IC50", "setting": "AKT2; read-out: AKT IC50, AKT2", "result": 90, "unit": "nM"},
      {"measurement": "microsomal CLint at 1 µM", "setting": "[3]", "result": 6, "unit": "µL/min/mg"},
      {"measurement": "sub-G0 population (cell-cycle analysis)", "setting": "MCF-7 cells [4]; MCF-7, 0.1–100 µM, 72 h", "result": "increase of sub-G0 population in a concentration dependent manner"},
      {"measurement": "increase in sub-G0 population compared to ALM301 alone", "setting": "MCF-7 cells [4]; MCF-7, ALM301 in combination with tamoxifen", "result": 4.5, "unit": "×"},
      {"measurement": "IC50", "setting": "CYP 2C19", "result": "> 25000", "unit": "nM"}
    ]}
  ]
}
